In US20160158200A1, “Combinations of Hepatitis C Virus Inhibitors” (priority 2013, published 2016):

System: HCV genotype-1a variant with glutamine 30 changed to glutamate in the NS5A protein
Assay type: cell-based
Settings: test compound titrated with BMS-790052 fixed at 200 nM; genotype 1a Q30E replicon
How it was run: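 Synergy was assessed by combining several fixed amounts of an NS5A-targeting compound with a titration of the second compound of interest.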

## CC(C)(C)OC(=O)N1CC(C)(C)OCC1C(=O)NC(c1nc(-c2ccc(-c3ccc(-c4c[nH]c(C(NC(=O)C5COC(C)(C)CN5C(=O)OC(C)(C)C)C(C)(C)C)n4)cc3)cc2)c[nH]1)C(C)(C)C [Compound L-60]
  Fold-Synergistic 1a (Q30E): >100 fold

## CCOC(=O)CC1(C(=O)N[C@H](c2nc(-c3ccc(-c4ccc(-c5c[nH]c([C@@H](NC(=O)C6(NC(=O)OCC)CCCCC6)C(C)(C)C)n5)cc4)cc3)c[nH]2)C(C)(C)C)CCCCC1 [Compound W-250]
  Fold-Synergistic 1a (Q30E): >100 fold

## CC(C)[C@H](NC(=O)C1CCC(F)(F)CC1)c1ncc(-c2ccc(-c3ccc(-c4cnc([C@@H](NC(=O)C5CCC(F)(F)CC5)C(C)C)n4C)cc3)cc2)n1C [Compound B-200]
  Fold-Synergistic 1a (Q30E): <10 fold

## CC1([C@H](NC(=O)N2CCC(F)(F)CC2)c2nc(-c3ccc(-c4ccc(-c5c[nH]c([C@@H](NC(=O)N6CCC(F)(F)CC6)C6(C)CC6)n5)cc4)cc3)c[nH]2)CC1 [Compound P-135]
  Fold-Synergistic 1a (Q30E): >100 fold

## CC(C)(C)[C@H](NC(=O)C1CCC(F)(F)CC1)c1nc2ccc(-c3ccc(-c4ccc5nc([C@@H](NC(=O)C6CCC(F)(F)CC6)C(C)(C)C)[nH]c5c4)cc3)cc2[nH]1 [Compound B32]
  Fold-Synergistic 1a (Q30E): >100 fold

## CCOC(=O)NC(C)(C)C(=O)N[C@H](c1nc(-c2ccc(-c3ccc(-c4c[nH]c([C@@H](NC(=O)C(C)(C)NC(=O)OCC)C(C)(C)C)n4)cc3)cc2)c[nH]1)C(C)(C)C [Compound Q-2]
  Fold-Synergistic 1a (Q30E): >100 fold

## CC(C)(C)[C@H](NC(=O)C1(C2(O)CCC(F)(F)CC2)CC1)c1nc(-c2ccc(-c3ccc4c(c3)CCc3nc([C@@H](NC(=O)C5(C6(O)CCC(F)(F)CC6)CC5)C(C)(C)C)[nH]c3-4)cc2)c[nH]1 [Compound B13B]
  Fold-Synergistic 1a (Q30E): >100 fold

## CC1(C)CC1C(=O)N[C@H](c1ncc(-c2ccc(-c3ccc(-c4cnc([C@@H](NC(=O)C5CC5(C)C)C(C)(C)C)[nH]4)cc3)cc2)[nH]1)C(C)(C)C (single isomer, unassigned) [Compound B80]
  Fold-Synergistic 1a (Q30E): >100 fold

## CC(C)[C@H](NC(=O)C1(F)CCCCC1)c1ncc(-c2ccc(-c3ccc(-c4cnc([C@@H](NC(=O)C5(F)CCCCC5)C(C)C)[nH]4)cc3)cc2)[nH]1 [Compound Y-30]
  Fold-Synergistic 1a (Q30E): >100 fold

## C[C@H]1CCN(C(=O)C2CCC(F)(F)CC2)C1c1nc(-c2ccc(-c3ccc(-c4c[nH]c([C@@H]5[C@@H](C)CCN5C(=O)C5CCC(F)(F)CC5)n4)cc3)cc2)c[nH]1 (stereo partly drawn) [Compound W-188]
  Fold-Synergistic 1a (Q30E): >10 fold

## CC(C)(C)C(NC(=O)C1CC(F)CN1C(=O)OC1CCCC1)c1nc(-c2ccc(-c3ccc(-c4c[nH]c(C(NC(=O)C5CC(F)CN5C(=O)OC5CCCC5)C(C)(C)C)n4)cc3)cc2)c[nH]1 (stereo not drawn) [Compound W-111]
  Fold-Synergistic 1a (Q30E): >100 fold

## CC(C)COC(=O)N1CCC[C@H]1c1ncc(-c2ccc(-c3ccc(-c4cnc([C@@H]5CCCN5C(=O)OCC(C)C)[nH]4)cc3)cc2)[nH]1 [Compound S-222]
  Fold-Synergistic 1a (Q30E): >10 fold

## CC(C)(F)C(NC(=O)C1CCC(F)(F)CC1)c1nc(-c2ccc(-c3ccc(-c4c[nH]c(C(NC(=O)C5CCC(F)(F)CC5)C(C)(C)F)n4)cc3)cc2)c[nH]1 (single isomer, unassigned) [Compound N-106B]
  Fold-Synergistic 1a (Q30E): >100 fold

## CC(C)(C)OC(=O)NC1CCC(C(=O)N[C@H](c2nc(-c3ccc(-c4ccc(-c5c[nH]c([C@@H](NC(=O)C6CCC(NC(=O)OC(C)(C)C)CC6)C(C)(C)C)n5)cc4)cc3)c[nH]2)C(C)(C)C)CC1 (stereo partly drawn) [Compound S-270]
  Fold-Synergistic 1a (Q30E): >100 fold

## CC1CN(C(=O)C(=O)N[C@H](c2nc(-c3ccc(-c4ccc(-c5c[nH]c([C@@H](NC(=O)C(=O)N6CC(C)OC(C)C6)C(C)(C)C)n5)cc4)cc3)c[nH]2)C(C)(C)C)CC(C)O1 (single isomer, unassigned) [Compound W-40A]
  Fold-Synergistic 1a (Q30E): >100 fold

## CC(C)(C)[C@H](NC(=O)[C@](C)(O)c1ccccc1)c1nc(-c2ccc(-c3ccc(-c4c[nH]c([C@@H](NC(=O)[C@](C)(O)c5ccccc5)C(C)(C)C)n4)cc3)cc2)c[nH]1 [Compound L-94]
  Fold-Synergistic 1a (Q30E): >100 fold

## CC(C)[C@H](NC(=O)C(C)(C)C(O)C1CC(F)(F)C1)c1nc(-c2ccc(-c3ccc(-c4c[nH]c([C@@H](NC(=O)C(C)(C)C(O)C5CC(F)(F)C5)C(C)C)n4)cc3)cc2)c[nH]1 (single isomer, unassigned) [Compound N-145A]
  Fold-Synergistic 1a (Q30E): >100 fold

## COC(=O)NC(C(=O)NC(c1nc(-c2ccc(-c3ccc(-c4c[nH]c(C(NC(=O)C(NC(=O)OC)C5CC(C)OC(C)C5)C(C)(C)C)n4)cc3)cc2)c[nH]1)C(C)(C)C)C1CC(C)OC(C)C1 [Compound L-72]
  Fold-Synergistic 1a (Q30E): >10 fold

## CC(C)[C@H](NC(=O)C(=O)c1ccccc1OC(F)F)c1ncc(-c2ccc(-c3ccc(-c4cnc([C@@H](NC(=O)C(=O)c5ccccc5OC(F)F)C(C)C)[nH]4)cc3)cc2)[nH]1 [Compound P-122]
  Fold-Synergistic 1a (Q30E): >100 fold

## CC(C)(C)[C@H](NC(=O)C1CCC(=O)CC1)c1nc(-c2ccc(-c3ccc(-c4c[nH]c([C@@H](NC(=O)C5CCC(=O)CC5)C(C)(C)C)n4)cc3)cc2)c[nH]1 [Compound W-173]
  Fold-Synergistic 1a (Q30E): >100 fold

## Cc1cc(C(=O)N[C@H](c2ncc(-c3ccc(-c4ccc(-c5cnc([C@@H](NC(=O)c6cc(C)on6)C(C)C)[nH]5)cc4)cc3)[nH]2)C(C)C)no1 [Compound S-18]
  Fold-Synergistic 1a (Q30E): >100 fold

## CC(C)[C@H](NC(=O)CC1CCOCC1)c1ncc(-c2ccc(-c3ccc(-c4cnc([C@@H](NC(=O)CC5CCOCC5)C(C)C)[nH]4)cc3)cc2)[nH]1 [Compound P-58]
  Fold-Synergistic 1a (Q30E): >10 fold

## CC(C)(C)OC(=O)NC1(C(=O)N[C@H](c2nc(-c3ccc(-c4ccc(-c5c[nH]c([C@@H](NC(=O)C6(NC(=O)OC(C)(C)C)CCC6)C(C)(C)C)n5)cc4)cc3)c[nH]2)C(C)(C)C)CCC1.O=C(O)C(F)(F)F.O=C(O)C(F)(F)F [Compound L-5]
  Fold-Synergistic 1a (Q30E): >100 fold

## CCOC(=O)N1CCC[C@H]1c1ncc(-c2ccc(-c3ccc(-c4cnc([C@@H]5CCCN5C(=O)OCC)[nH]4)cc3)cc2)[nH]1 [Compound S-217]
  Fold-Synergistic 1a (Q30E): >10 fold

## CC1(C(=O)N[C@H](c2nc(-c3ccc(-c4ccc(-c5c[nH]c([C@@H](NC(=O)C6(C)CC6)C(C)(C)C)n5)cc4)cc3)c[nH]2)C(C)(C)C)CC1 [Compound L-45]
  Fold-Synergistic 1a (Q30E): >100 fold

## CC(C)(C)[C@H](NC(=O)C(C)(C)S(C)(=O)=O)c1nc(-c2ccc(-c3ccc(-c4cnc([C@@H](NC(=O)C(C)(C)S(C)(=O)=O)C(C)(C)C)[nH]4)cc3)cc2)c[nH]1 [Compound B-180]
  Fold-Synergistic 1a (Q30E): >100 fold

## CC(C)(C)[C@H](NC(=O)C1CCC(C(F)F)CC1)c1nc(-c2ccc(-c3ccc(-c4c[nH]c([C@@H](NC(=O)C5CCC(C(F)F)CC5)C(C)(C)C)n4)cc3)cc2)c[nH]1 (stereo partly drawn) [Compound Y-71]
  Fold-Synergistic 1a (Q30E): >100 fold

## CC(C)(C)OC(=O)N1CCCCC1(C)C(=O)N[C@H](c1nc(-c2ccc(-c3ccc(-c4c[nH]c([C@@H](NC(=O)C5(C)CCCCN5C(=O)OC(C)(C)C)C(C)(C)C)n4)cc3)cc2)c[nH]1)C(C)(C)C (single isomer, unassigned) [Compound L-46b]
  Fold-Synergistic 1a (Q30E): >100 fold

## CC(C)(C)OC(=O)NC1CCCCC1C(=O)N[C@H](c1nc(-c2ccc(-c3ccc(-c4c[nH]c([C@@H](NC(=O)C5CCCCC5NC(=O)OC(C)(C)C)C(C)(C)C)n4)cc3)cc2)c[nH]1)C(C)(C)C (single isomer, unassigned) [Compound W-23C]
  Fold-Synergistic 1a (Q30E): >100 fold

## CC1([C@H](NC(=O)C(=O)N2CCC(C(F)(F)F)CC2)c2nc(-c3ccc(-c4ccc(-c5c[nH]c([C@@H](NC(=O)C(=O)N6CCC(C(F)(F)F)CC6)C6(C)CC6)n5)cc4)cc3)c[nH]2)CC1 [Compound W-59]
  Fold-Synergistic 1a (Q30E): >100 fold

## CC(C)(C)[C@H](NC(=O)C1(C(O)c2ccccc2)CC1)c1nc(-c2ccc(-c3ccc(-c4c[nH]c([C@@H](NC(=O)C5(C(O)c6ccccc6)CC5)C(C)(C)C)n4)cc3)cc2)c[nH]1 (single isomer, unassigned) [Compound N-126B]
  Fold-Synergistic 1a (Q30E): >100 fold

## CC(C)(C)OC(=O)NC1(C(=O)N[C@H](c2nc(-c3ccc(-c4ccc(-c5c[nH]c([C@@H](NC(=O)C6(NC(=O)OC(C)(C)C)CCC(=O)CC6)C(C)(C)C)n5)cc4)cc3)c[nH]2)C(C)(C)C)CCC(=O)CC1 [Compound W-233]
  Fold-Synergistic 1a (Q30E): >100 fold

## CC(C)(C)[C@H](NC(=O)C1CCC(F)(F)CC1)c1ncc(-c2ccc(-c3ccc4nc([C@@H](NC(=O)C5CCC(F)(F)CC5)C(C)(C)C)[nH]c4c3)cc2)[nH]1 [Compound B58]
  Fold-Synergistic 1a (Q30E): >100 fold

## CC(C)(C)[C@H](NC(=O)C1(NCC(F)(F)F)CC1)c1nc(-c2ccc(-c3ccc(-c4c[nH]c([C@@H](NC(=O)C5(NCC(F)(F)F)CC5)C(C)(C)C)n4)cc3)cc2)c[nH]1 [Compound L-96]
  Fold-Synergistic 1a (Q30E): >100 fold

## COc1ccc2c(C(=O)N3CCC[C@H]3c3ncc(-c4ccc(-c5ccc(-c6cnc([C@@H]7CCCN7C(=O)c7nc(Cl)cc8cc(OC)ccc78)[nH]6)cc5)cc4)[nH]3)nc(Cl)cc2c1 [Compound S-204]
  Fold-Synergistic 1a (Q30E): >100 fold

## COc1ccccc1C(O)CC(=O)N[C@H](c1nc(-c2ccc(-c3ccc(-c4c[nH]c([C@@H](NC(=O)C5(C(O)c6ccccc6OC)CC5)C(C)(C)C)n4)cc3)cc2)c[nH]1)C(C)(C)C (single isomer, unassigned) [Compound N-135B]
  Fold-Synergistic 1a (Q30E): >100 fold

## CC(C)[C@H](NC(=O)C(=O)C1(C)CCC(F)(F)CC1)c1ncc(-c2ccc(-c3ccc(-c4cnc([C@@H](NC(=O)C(=O)C5(C)CCC(F)(F)CC5)C(C)C)[nH]4)cc3)cc2)[nH]1 [Compound P-112]
  Fold-Synergistic 1a (Q30E): >100 fold

## CC(C)(C)[C@H](NC(=O)C(=O)N1CCOCC1)c1nc(-c2ccc(-c3ccc(-c4c[nH]c([C@@H](NC(=O)C(=O)N5CCOCC5)C(C)(C)C)n4)cc3)cc2)c[nH]1 [Compound W-25]
  Fold-Synergistic 1a (Q30E): >100 fold

## CC(C)(CC(F)(F)F)C(=O)N[C@H](c1nc(-c2ccc(-c3ccc(-c4c[nH]c([C@@H](NC(=O)C(C)(C)CC(F)(F)F)C(C)(C)C)n4)cc3)cc2)c[nH]1)C(C)(C)C [Compound Y-8]
  Fold-Synergistic 1a (Q30E): >100 fold
